In patent US20100298244A1, “COMPOSITION FOR THE PREVENTION AND THE TREATMENT OF HELICOBACTER PYLORI INFECTION” (NATIONAL TAIWAN UNIVERSITY, priority 2009, published 2010):

Test system: 20 Helicobacter pylori strains
Test: MIC by agar dilution method
Format: cell-based

Structure (SMILES): CC(=O)N[C@H]1[C@H]([C@H](O)[C@H](O)CO)OC(O)(C(=O)O)C[C@@H]1O (stereo partly shown) [Sialic acid, N-Acetylneuraminic acid]
- MIC Range (20 H. pylori strains (10 resistant to metronidazole and clarithromycin, 10 sensitive)): >4000 µg/mL
- MIC (Helicobacter pylori, 20 H. pylori strains, read-out: MIC For 50% of strains): > 4000 µg/mL
- MIC90 (Helicobacter pylori, 20 H. pylori strains, read-out: MIC For 90% of strains (MIC90)): > 4000 µg/mL
- inhibitory activity against Helicobacter pylori (alone): did not show any inhibitory activity
